Entries after “also recorded” stand apart in the source; their conditions may differ. Blank lines part the entries; values can stand above or below the molecule they belong to.
Tests used:
MAST1 = molecular target: T1, MAST1 (Homo sapiens, UniProt Q9Y2H9); assay: MAST1 in vitro kinase assay (purified GST-MAST1, ADP-Glo); assay type: biochemical; conditions: 10 μM drugs incubated with purified GST-MAST1
T1 construct: GST; made in house; host or cells: 293T
Description: GST-MAST1 variants were enriched from 293T and kinase activity was assessed by ADP-Glo Kinase assay using myelin basic protein (MBP) as a substrate.
10 μM drugs were incubated with purified GST-MAST1 and applied to the in vitro kinase assay.
FIG. 7G show data on the effect of lestaurtinib on MAST1 activity at a range of ATP concentrations.

[1] = Tolerability of lestaurtinib and cisplatin dosage (body weight, histopathology, hematopoietic properties); assay type: in vivo, mice; conditions: 20 mg/kg lestaurtinib and 5 mg/kg cisplatin
[2] = Cisplatin sensitivity / cell viability with MAST1 inhibitors in KB-3-1 cells; assay type: cell-based; conditions: human, read-out: attenuation of cell viability when treated alone
212LN cells = assay: Combination cell viability, Combination Index by CompuSyn, 212LN; assay type: cell-based, human; conditions: lestaurtinib in combination with cisplatin
Excerpt: (§1) Combination Index (CI) value for cell viability was obtained by CompuSyn.

TKO-002 = assay: Combination cell viability, SCLC patient-derived tumor TKO-002; assay type: cell-based, human; conditions: combination of lestaurtinib and cisplatin, platinum-refractory SCLC TKO-002
Excerpt: CI value for synergistic effect is shown.

KB-3-1 cells = assay: Combination cell viability, Combination Index by CompuSyn, KB-3-1; assay type: cell-based, human; conditions: lestaurtinib in combination with cisplatin
Excerpt: as §1

cRaf-MEK1 = molecular target: T2, cRaf-MEK1 (Homo sapiens, UniProt P04049+Q02750); assay: cRaf-MEK1 dissociation in cancer cells (MEK1 immunoprecipitation); assay type: cell-based
T2 construct: endogenous in cells; host or cells: KB-3-1 and other cancer cell lines
T2 sequence (Q02750 whole entry): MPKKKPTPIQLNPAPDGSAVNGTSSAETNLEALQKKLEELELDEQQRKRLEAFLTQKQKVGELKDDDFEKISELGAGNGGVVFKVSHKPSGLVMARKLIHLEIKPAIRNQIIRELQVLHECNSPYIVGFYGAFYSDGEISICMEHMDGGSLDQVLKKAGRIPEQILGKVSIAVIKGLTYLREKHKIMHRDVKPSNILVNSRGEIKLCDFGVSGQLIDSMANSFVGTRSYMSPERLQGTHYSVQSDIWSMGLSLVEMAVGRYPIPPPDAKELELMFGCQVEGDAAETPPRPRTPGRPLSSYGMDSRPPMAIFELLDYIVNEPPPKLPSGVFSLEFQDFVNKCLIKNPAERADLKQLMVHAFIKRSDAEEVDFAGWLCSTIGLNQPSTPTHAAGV
T2 sequence (P04049 whole entry): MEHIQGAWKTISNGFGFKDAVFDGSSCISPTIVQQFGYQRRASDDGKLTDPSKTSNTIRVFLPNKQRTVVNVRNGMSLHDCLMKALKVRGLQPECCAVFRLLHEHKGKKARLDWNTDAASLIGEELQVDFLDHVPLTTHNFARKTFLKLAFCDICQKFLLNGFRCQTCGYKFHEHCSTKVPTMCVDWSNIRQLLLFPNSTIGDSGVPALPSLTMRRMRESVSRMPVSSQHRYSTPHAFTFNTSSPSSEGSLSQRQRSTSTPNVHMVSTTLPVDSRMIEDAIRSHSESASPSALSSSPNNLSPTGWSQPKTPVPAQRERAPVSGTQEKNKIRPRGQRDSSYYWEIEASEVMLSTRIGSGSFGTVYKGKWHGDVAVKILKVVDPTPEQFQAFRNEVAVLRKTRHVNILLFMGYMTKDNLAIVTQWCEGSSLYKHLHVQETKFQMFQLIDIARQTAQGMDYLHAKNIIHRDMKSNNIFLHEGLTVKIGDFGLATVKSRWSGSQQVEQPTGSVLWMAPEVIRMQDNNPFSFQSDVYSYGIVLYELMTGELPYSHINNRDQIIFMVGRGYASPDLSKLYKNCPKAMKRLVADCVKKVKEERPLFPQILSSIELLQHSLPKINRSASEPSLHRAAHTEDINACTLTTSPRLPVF
Description: KB-3-1 cells were treated with different compounds as indicated, followed by MEK1 immunoprecipitation and immunoblotting.

Lung PDX (Pt-9 tumor) = assay: Tumor growth in lung PDX mice (Pt-9 tumor), lestaurtinib or trametinib with cisplatin; assay type: in vivo; conditions: in combination with cisplatin (5 mg/kg i.p. twice a week); lestaurtinib 20 mg/kg i.p. 5 times a week, trametinib 1 mg/kg oral daily
MEK1-cRaf complex = molecular target: T3, MEK1-cRaf complex (Homo sapiens, UniProt P04049+Q02750); assay: In vitro MEK1-cRaf dissociation, purified complex from KB-3-1 cells; assay type: biochemical
T3 construct: endogenous in cells; host or cells: KB-3-1
T3 sequence (Q02750 whole entry): as the sequence (Q02750 whole entry) above
T3 sequence (P04049 whole entry): as the sequence (P04049 whole entry) above
Excerpt: Samples were collected at different time points and subjected to immunoblotting. Density analysis of relative amount of cRaf bound to MEK1 from three biological replicates are shown.

T1 sequence (Q9Y2H9 whole entry): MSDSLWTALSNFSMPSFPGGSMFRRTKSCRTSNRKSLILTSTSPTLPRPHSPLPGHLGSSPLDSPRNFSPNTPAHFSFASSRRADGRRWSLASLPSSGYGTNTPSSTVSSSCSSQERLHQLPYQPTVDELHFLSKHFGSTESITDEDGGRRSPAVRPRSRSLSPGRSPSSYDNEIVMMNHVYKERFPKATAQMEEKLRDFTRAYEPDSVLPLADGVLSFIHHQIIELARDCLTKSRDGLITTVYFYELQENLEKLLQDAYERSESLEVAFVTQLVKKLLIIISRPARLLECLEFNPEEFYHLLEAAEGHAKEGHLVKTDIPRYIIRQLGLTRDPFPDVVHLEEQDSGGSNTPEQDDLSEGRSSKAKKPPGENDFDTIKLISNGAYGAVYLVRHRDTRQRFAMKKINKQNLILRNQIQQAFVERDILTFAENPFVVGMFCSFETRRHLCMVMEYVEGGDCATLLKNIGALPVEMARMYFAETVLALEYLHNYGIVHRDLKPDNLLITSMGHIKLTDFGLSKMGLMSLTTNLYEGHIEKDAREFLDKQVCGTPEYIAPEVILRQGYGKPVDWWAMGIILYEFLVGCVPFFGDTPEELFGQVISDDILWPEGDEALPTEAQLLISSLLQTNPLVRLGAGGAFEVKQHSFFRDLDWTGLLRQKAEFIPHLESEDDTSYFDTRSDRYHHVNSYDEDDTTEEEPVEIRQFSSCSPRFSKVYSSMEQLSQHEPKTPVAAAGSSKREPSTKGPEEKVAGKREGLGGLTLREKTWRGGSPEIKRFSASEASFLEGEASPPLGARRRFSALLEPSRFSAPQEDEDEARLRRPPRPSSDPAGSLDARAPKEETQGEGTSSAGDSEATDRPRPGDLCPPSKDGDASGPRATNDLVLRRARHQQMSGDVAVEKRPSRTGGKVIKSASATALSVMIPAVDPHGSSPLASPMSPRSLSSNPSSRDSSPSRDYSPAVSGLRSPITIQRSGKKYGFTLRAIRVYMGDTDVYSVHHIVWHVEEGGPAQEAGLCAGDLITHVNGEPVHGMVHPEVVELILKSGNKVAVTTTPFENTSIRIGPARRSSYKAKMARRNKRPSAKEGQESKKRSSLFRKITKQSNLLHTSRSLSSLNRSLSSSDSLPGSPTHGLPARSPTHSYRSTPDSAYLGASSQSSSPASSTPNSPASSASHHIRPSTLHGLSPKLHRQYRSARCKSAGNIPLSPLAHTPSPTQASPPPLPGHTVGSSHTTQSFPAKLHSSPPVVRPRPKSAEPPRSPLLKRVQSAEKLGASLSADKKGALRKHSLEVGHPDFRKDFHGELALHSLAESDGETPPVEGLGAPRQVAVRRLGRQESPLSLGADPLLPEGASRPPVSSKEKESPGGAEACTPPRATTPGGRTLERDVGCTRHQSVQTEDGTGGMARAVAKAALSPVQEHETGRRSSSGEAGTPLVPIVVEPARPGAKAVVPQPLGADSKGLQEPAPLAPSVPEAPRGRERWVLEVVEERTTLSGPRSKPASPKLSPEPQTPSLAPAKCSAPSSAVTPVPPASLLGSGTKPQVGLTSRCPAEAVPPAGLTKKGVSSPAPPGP

MAST1 activity in in vitro MAST1 kinase assay (MAST1): inhibited MAST1 activity in vitro
Structure (SMILES): Cc1[nH]c(C=C2C(=O)Nc3ccc(F)cc32)c(C)c1C(=O)NCC(O)CN1CCOCC1 (stereo not drawn) [SU14813, 5-((5-fluoro-2-oxo-1,2-dihydro-3H-indol-3-ylidene)methyl)-N-(2-hydroxy-3-morpholin-4-ylpropyl)-2,4-dimethyl-1H-pyrrole-3-carboxamide]

Structure (SMILES): C[C@]12O[C@H](C[C@]1(O)CO)n1c3ccccc3c3c4c(c5c6ccccc6n2c5c31)CNC4=O [lestaurtinib, 7-hydroxy-7-(hydroxymethyl)-8-methyl-5,6,7,8,13,14-hexahydro-15H-16-oxa-4b,8a,14-triaza-5,8-methanodibenzo[b,h]cycloocta[jkl]cyclopenta[e]-as-indacen-15-one]
changes in body weight, histopathology, or hematopoietic properties [1]: did not induce significant changes | cytotoxicity at 48 h, 100 nM [2]: < 20% | combination index (CI) for cell viability (212LN cells): 0.257 | CI value for cell viability (TKO-002): 0.57 | combination index (CI) for cell viability (KB-3-1 cells): 0.256

Structure (SMILES): CN[C@@H]1C[C@H]2O[C@@](C)([C@@H]1OC)n1c3ccccc3c3c4c(c5c6ccccc6n2c5c31)C(=O)NC4 [staurosporine, 6-methoxy-5-methyl-7-methylamino-6,7,8,9,15,16-hexahydro-5H,14H-5,9-epoxy-4b,9a,15-triazadibenzo[b,h]cyclonona[1,2,3,4-jkl]cyclopenta[e]-as-indacen-14-one]
MAST1 activity in in vitro MAST1 kinase assay (MAST1): inhibited MAST1 activity in vitro

Structure (SMILES): CC(=O)O[C@H]1C(=O)[C@@]2(C)[C@H]([C@H](OC(=O)c3ccccc3)[C@]3(O)C[C@H](OC(=O)[C@H](O)[C@@H](NC(=O)c4ccccc4)c4ccccc4)C(C)=C1C3(C)C)[C@]1(OC(C)=O)CO[C@@H]1C[C@@H]2O [paclitaxel]
dissociation of cRaf-MEK1 induced by DNA damaging agents and cytotoxic drugs (cRaf-MEK1; KB-3-1 cells): not

Structure (SMILES): CC(=O)Nc1cccc(-n2c(=O)n(C3CC3)c(=O)c3c(Nc4ccc(I)cc4F)n(C)c(=O)c(C)c32)c1 [trametinib, N-[3-[3-cyclopropyl-5-[(2-fluoro-4-iodophenyl)amino]-3,4,6,7-tetrahydro-6,8-dimethyl-2,4,7-trioxopyrido[4,3-d]pyrimidin-1(2H)-yl]phenyl]acetamide]
PDX tumor growth and proliferation (Lung PDX (Pt-9 tumor)): attenuated PDX tumor growth and proliferation; also recorded: sensitizes cancer cells to cisplatin

Structure (SMILES): N.N.[Cl][Pt][Cl] [cisplatin]
dissociation of cRaf from MEK1 in diverse types of cancer cells (cRaf-MEK1; 5 μg/ml cisplatin for 24 hours): dissociates cRaf | time to dissociation of cRaf from MEK1 (MEK1-cRaf complex; 5 μg/ml cisplatin, time course): within one hour | dissociation of cRaf from MEK1 in vitro (MEK1-cRaf complex; purified MEK1-cRaf complex, cisplatin 0-5 μg/ml for 2 hours): dissociates cRaf from MEK1 in a dose-dependent manner

Structure (SMILES): N#CC(=C(/N)Sc1ccccc1N)/C(C#N)=C(\N)Sc1ccccc1N [U0126]
sensitization of cancer cells to cisplatin by MEK1 inhibitor (cancer cells): sensitized cancer cells to cisplatin

MAST1 activity in in vitro MAST1 kinase assay (MAST1): inhibited MAST1 activity in vitro
Structure (SMILES): CN1CCN(c2ccc3[nH]c(-c4c(N)c5c(F)cccc5[nH]c4=O)nc3c2)CC1 [dovitinib, 4-amino-5-fluoro-3-(5-(4-methylpiperazin-1-yl)-1H-benzimidazol-2-yl)quinolin-2(1H)-one]

MAST1 activity in in vitro MAST1 kinase assay (MAST1): inhibited MAST1 activity in vitro
Structure (SMILES): COc1cc(Nc2c(C#N)cnc3cc(OCCCN4CCN(C)CC4)c(OC)cc23)c(Cl)cc1Cl [bosutinib, 4-[(2,4-Dichloro-5-methoxyphenyl)amino]-6-methoxy-7-[3-(4-methyl-1-piperazinyl)propoxy]-3-quinolinecarbonitrile]

— US20210353639A1, “MAST1 AND USES FOR DIAGNOSING AND TREATING CANCER” (EMORY UNIVERSITY, priority 2018, published 2021)
